{"source": "patent US20130115671A1", "about": "“ENZYMES FROM CONIDIOBOLUS BREFELDIANUS AND PROCESS FOR PREPARATION THEREOF” (Council of Scientific and Industrial Research, priority 2010, published 2013)", "key": {"[1]": {"tested_on": "protease secreted by Conidiobolus brefeldianus MTCC 5185", "assay": "Effect of metals on protease activity", "assay_type": "biochemical", "details": "metal 5 mM in assay mixture, crude protease"}, "[2]": {"tested_on": "protease from Conidiobolus brefeldianus MTCC 5185", "experimental": "This example illustrates the stability of the protease in presence of salts. […] Aliquots were removed at regular intervals of 30 min and residual activity was estimated at 50° C., pH 9."}, "[3]": {"tested_on": "protease of Conidiobolus brefeldianus MTCC 5185", "assay": "Effect of inhibitors on protease activity (PMSF, EDTA, iodoacetate, DMSO)", "assay_type": "biochemical", "excerpt": "This example illustrates the effect of inhibitors on protease activity of Conidiobolus brefeldianus MTCC 5185. Following inhibitors were studied: phenylmethylsulfonyl fluoride (PMSF), ethylene-diaminetetraacetic acid (EDTA), iodoacetic acid, and dimeth ylsulphoxide (DMSO). The crude culture filtrate grown as described in example 3 was concentrated by ultra-filtration on PM-10 and YM-3 membranes as described in example 27 and used for inhibition studies. Both the protease preparations were pre-incubated in 100 mM Tris-HCl buffer (pH 8.0) with each inhibitor for 1 h and the residual protease activity was measured at 50° C., pH 9.0. Protease without inhibitor served as control."}, "[4]": {"tested_on": "protease from Conidiobolus brefeldianus MTCC 5185", "assay": "Stability of protease at 50° C. in presence of trehalose and sorbitol", "assay_type": "physicochemical", "parameters": "unit not given here", "excerpt": "Stability increased with increasing concentration of trehalose and sorbitol."}, "[5]": {"tested_on": "protease from Conidiobolus brefeldianus MTCC 5185", "assay": "Stability of protease at 50° C. in presence of sugar alcohols", "assay_type": "physicochemical", "parameters": "unit not given here", "experimental": "Ultrafiltered protease as described in example 27 was incubated at 50° C. in presence of glycerol, mannitol, sorbitol and xylitol at 20% concentration up to 3 h. Aliquots were removed at regular intervals of 30 min and residual activity was estimated at 50° C., pH 9."}, "[6]": {"details": "10 mM CaCl2, 0.5M NaCl, 0.5M glycine or 15% (NH4)2SO4, 0 min"}, "[7]": {"details": "salt concentration as in column head, 30 min"}, "[8]": {"details": "salt concentration as in column head, 60 min"}, "[9]": {"details": "salt concentration as in column head, 90 min"}, "[10]": {"details": "salt concentration as in column head, 120 min"}, "[11]": {"details": "salt concentration as in column head, 180 min"}, "[12]": {"details": "pre-incubated 1 h, pH 8.0, 20 mM EDTA, 10 mM Iodoacetate, 1 mM PMSF (in DMSO), DMSO"}, "[13]": {"details": "ultrafiltered protease with 20% sugar alcohol, 0 min"}}, "note": "“And” between values parts separate entries of the source, which are not always exact repeats. Equal values may be shown once. Read-outs that look alike come from different tables or passages of the source.", "data": [{"smiles": "[Cl-].[Cl-].[Mg+2]", "note": "[MgCl2]", "values": [{"measurement": "Relative Activity (%) of protease", "setting": "[1]", "value": 132.24, "unit": "%"}]}, {"smiles": "O=S(=O)([O-])[O-].[Mg+2]", "note": "[MgSO4]", "values": [{"measurement": "Relative Activity (%) of protease", "setting": "[1]", "value": 135.87, "unit": "%"}]}, {"smiles": "[Cl][Mn][Cl]", "note": "[MnCl2]", "values": [{"measurement": "Relative Activity (%) of protease", "setting": "[1]", "value": 104.49, "unit": "%"}]}, {"smiles": "O=S(=O)([O-])[O-].[Mn+2]", "note": "[MnSO4]", "values": [{"measurement": "Relative Activity (%) of protease", "setting": "[1]", "value": 108.39, "unit": "%"}]}, {"smiles": "[Cl-].[Na+]", "note": "[NaCl]", "values": [{"measurement": "Residual Activity (%) of protease at 50° C.", "setting": "[2]; [6]", "value": 100.00, "unit": "%"}, {"measurement": "Residual Activity (%) of protease at 50° C.", "setting": "[2]; [7]", "value": 77.79, "unit": "%"}, {"measurement": "Residual Activity (%) of protease at 50° C.", "setting": "[2]; [8]", "value": 54.11, "unit": "%"}, {"measurement": "Residual Activity (%) of protease at 50° C.", "setting": "[2]; [9]", "value": 49.26, "unit": "%"}, {"measurement": "Residual Activity (%) of protease at 50° C.", "setting": "[2]; [10]", "value": 48.83, "unit": "%"}, {"measurement": "Residual Activity (%) of protease at 50° C.", "setting": "[2]; [11]", "value": 37.44, "unit": "%"}]}, {"smiles": "[Cl][Ni][Cl]", "note": "[NiCl2]", "values": [{"measurement": "Relative Activity (%) of protease", "setting": "[1]", "value": 65.60, "unit": "%"}]}, {"smiles": "O=S(=O)(F)Cc1ccccc1", "note": "[PMSF, phenylmethylsulfonyl fluoride]", "values": [{"measurement": "inhibition of protease", "setting": "[3]; 1 mM PMSF", "value": "completely inhibited"}, {"measurement": "Inhibition (%) PM-10 Retentate", "setting": "[3]; [12]", "value": 79.27, "unit": "%"}, {"measurement": "Inhibition (%) YM-3 Retentate", "setting": "[3]; [12]", "value": 90.24, "unit": "%"}]}, {"smiles": "OC[C@H]1O[C@H](O[C@H]2O[C@H](CO)[C@@H](O)[C@H](O)[C@H]2O)[C@H](O)[C@@H](O)[C@@H]1O", "note": "[Trehalose, trehalose]", "values": [{"measurement": "residual activity of protease at 50° C.", "setting": "[4]; additive 20%, 0 h", "value": 100.00}, {"measurement": "residual activity of protease at 50° C.", "setting": "[4]; additive 20%, 1 h", "value": 78.14}, {"measurement": "residual activity of protease at 50° C.", "setting": "[4]; additive 20%, 2 h", "value": 62.15}, {"measurement": "residual activity of protease at 50° C.", "setting": "[4]; additive 20%, 3 h", "value": 46.12}, {"measurement": "residual activity of protease at 50° C.", "setting": "[4]; additive 20%, 4 h", "value": 39.80}, {"measurement": "residual activity of protease at 50° C.", "setting": "[4]; additive 40%, 0 h", "value": 100.00}, {"measurement": "residual activity of protease at 50° C.", "setting": "[4]; additive 40%, 1 h", "value": 85.27}, {"measurement": "residual activity of protease at 50° C.", "setting": "[4]; additive 40%, 2 h", "value": 75.99}, {"measurement": "residual activity of protease at 50° C.", "setting": "[4]; additive 40%, 3 h", "value": 75.47}, {"measurement": "residual activity of protease at 50° C.", "setting": "[4]; additive 40%, 4 h", "value": 71.11}, {"measurement": "residual activity of protease at 50° C.", "setting": "[4]; additive 50%, 0 h", "value": 100.00}, {"measurement": "residual activity of protease at 50° C.", "setting": "[4]; additive 50%, 1 h", "value": 92.32}, {"measurement": "residual activity of protease at 50° C.", "setting": "[4]; additive 50%, 2 h", "value": 89.98}, {"measurement": "residual activity of protease at 50° C.", "setting": "[4]; additive 50%, 3 h", "value": 85.89}, {"measurement": "residual activity of protease at 50° C.", "setting": "[4]; additive 50%, 4 h", "value": 81.89}, {"measurement": "residual activity of protease at 50° C.", "setting": "[4]; additive 50%, 4 h, listed as trehalose", "value": "~80"}]}, {"smiles": "[Cl-].[Cl-].[Zn+2]", "note": "[ZnCl2]", "values": [{"measurement": "Relative Activity (%) of protease", "setting": "[1]", "value": 60.27, "unit": "%"}]}, {"smiles": "O=S(=O)([O-])[O-].[Zn+2]", "note": "[ZnSO4]", "values": [{"measurement": "Relative Activity (%) of protease", "setting": "[1]", "value": 58.03, "unit": "%"}]}, {"smiles": "OCC(O)CO", "note": "[glycerol]", "values": [{"measurement": "residual activity of protease at 50° C.", "setting": "[5]; 20% sugar alcohol, 30 min", "value": 74.68}, {"measurement": "residual activity of protease at 50° C.", "setting": "[5]; 20% sugar alcohol, 60 min", "value": 62.01}, {"measurement": "residual activity of protease at 50° C.", "setting": "[5]; 20% sugar alcohol, 90 min", "value": 49.08}, {"measurement": "residual activity of protease at 50° C.", "setting": "[5]; 20% sugar alcohol, 120 min", "value": 36.97}, {"measurement": "residual activity of protease at 50° C.", "setting": "[5]; 20% sugar alcohol, 180 min", "value": 31.73}, {"measurement": "residual activity of protease at 50° C.", "setting": "[5]; [13]", "value": 100}]}, {"smiles": "NCC(=O)O", "note": "[glycine]", "values": [{"measurement": "Residual Activity (%) of protease at 50° C.", "setting": "[2]; [6]", "value": 100.00, "unit": "%"}, {"measurement": "Residual Activity (%) of protease at 50° C.", "setting": "[2]; [7]", "value": 74.85, "unit": "%"}, {"measurement": "Residual Activity (%) of protease at 50° C.", "setting": "[2]; [8]", "value": 54.19, "unit": "%"}, {"measurement": "Residual Activity (%) of protease at 50° C.", "setting": "[2]; [9]", "value": 43.16, "unit": "%"}, {"measurement": "Residual Activity (%) of protease at 50° C.", "setting": "[2]; [10]", "value": 39.89, "unit": "%"}, {"measurement": "Residual Activity (%) of protease at 50° C.", "setting": "[2]; [11]", "value": 31.62, "unit": "%"}]}, {"smiles": "OC[C@@H](O)[C@@H](O)[C@H](O)[C@@H](O)CO", "note": "[sorbitol]", "values": [{"measurement": "residual activity of protease at 50° C.", "setting": "[4]; additive 20%, 0 h", "value": 100.0}, {"measurement": "residual activity of protease at 50° C.", "setting": "[4]; additive 20%, 1 h", "value": 77.28}, {"measurement": "residual activity of protease at 50° C.", "setting": "[4]; additive 20%, 2 h", "value": 49.25}, {"measurement": "residual activity of protease at 50° C.", "setting": "[4]; additive 20%, 3 h", "value": 42.99}, {"measurement": "residual activity of protease at 50° C.", "setting": "[4]; additive 20%, 4 h", "value": 33.11}, {"measurement": "residual activity of protease at 50° C.", "setting": "[4]; additive 40%, 0 h", "value": 100.0}, {"measurement": "residual activity of protease at 50° C.", "setting": "[4]; additive 40%, 1 h", "value": 87.00}, {"measurement": "residual activity of protease at 50° C.", "setting": "[4]; additive 40%, 2 h", "value": 70.69}, {"measurement": "residual activity of protease at 50° C.", "setting": "[4]; additive 40%, 3 h", "value": 61.54}, {"measurement": "residual activity of protease at 50° C.", "setting": "[4]; additive 40%, 4 h", "value": 58.57}, {"measurement": "residual activity of protease at 50° C.", "setting": "[4]; additive 50%, 0 h", "value": 100.0}, {"measurement": "residual activity of protease at 50° C.", "setting": "[4]; additive 50%, 1 h", "value": 91.31}, {"measurement": "residual activity of protease at 50° C.", "setting": "[4]; additive 50%, 2 h", "value": 88.44}, {"measurement": "residual activity of protease at 50° C.", "setting": "[4]; additive 50%, 3 h", "value": 79.44}, {"measurement": "residual activity of protease at 50° C.", "setting": "[4]; additive 50%, 4 h", "value": "~80"}, {"measurement": "residual activity of protease at 50° C.", "setting": "[4]; additive 50%, 4 h, listed as Sorbitol", "value": 78.25}, {"measurement": "residual activity of protease at 50° C.", "setting": "[5]; 20% sugar alcohol, 30 min", "value": 84.01}, {"measurement": "residual activity of protease at 50° C.", "setting": "[5]; 20% sugar alcohol, 60 min", "value": 70.66}, {"measurement": "residual activity of protease at 50° C.", "setting": "[5]; 20% sugar alcohol, 90 min", "value": 62.31}, {"measurement": "residual activity of protease at 50° C.", "setting": "[5]; 20% sugar alcohol, 120 min", "value": 51.57}, {"measurement": "residual activity of protease at 50° C.", "setting": "[5]; 20% sugar alcohol, 180 min", "value": "47 and 47.11"}, {"measurement": "residual activity of protease at 50° C.", "setting": "[5]; [13]", "value": 100}]}, {"smiles": "OC[C@@H](O)[C@H](O)[C@@H](O)CO", "note": "[xylitol]", "values": [{"measurement": "residual activity of protease at 50° C.", "setting": "[5]; 20% sugar alcohol, 30 min", "value": 76.31}, {"measurement": "residual activity of protease at 50° C.", "setting": "[5]; 20% sugar alcohol, 60 min", "value": 63.36}, {"measurement": "residual activity of protease at 50° C.", "setting": "[5]; 20% sugar alcohol, 90 min", "value": 52.42}, {"measurement": "residual activity of protease at 50° C.", "setting": "[5]; 20% sugar alcohol, 120 min", "value": 44.61}, {"measurement": "residual activity of protease at 50° C.", "setting": "[5]; 20% sugar alcohol, 180 min", "value": 39.25}, {"measurement": "residual activity of protease at 50° C.", "setting": "[5]; [13]", "value": 100}]}]}
